Activity calls are given as the source filed them. The calls are words filed in the database; no cut-off is given here.
Assays:
[1] = Cmax in Wistar rat brain at 10 mg/kg, ip measured upto 8 hrs post dose by LC-MS/MS analysis; type: ADME, organism-based; set-up: time < 8 hrs, dose 10 mg/kg, route ip
[2] = Tmax in Wistar rat plasma at 10 mg/kg, ip measured upto 8 hrs post dose by LC-MS/MS analysis; type: ADME, organism-based; conditions: in vivo
[3] = Unbound clearence in Wistar rat plasma at 10 mg/kg, ip measured upto 8 hrs post dose by LC-MS/MS analysis; type: ADME, organism-based; conditions: in vivo
[4] = Half life in Wistar rat brain at 10 mg/kg, ip measured upto 8 hrs post dose by LC-MS/MS analysis; type: ADME, organism-based; conditions: in vivo
[5] = AUCinfinity in Wistar rat plasma at 10 mg/kg, ip measured upto 8 hrs post dose by LC-MS/MS analysis; type: ADME, organism-based; set-up: dose 10 mg/kg, time < 8 hrs, route ip; conditions: in vivo
[6] = target: Relaxin-3 receptor 1 (Homo sapiens) (UniProt Q9NSD7); test: Negative allosteric modulator activity at human RXFP3 expressed in CHO-K1 cells assessed as [35S]GTPgammaS binding at 10 to 30 uM incubated for 1 hr by [35S]GTP-gammaS binding assay; type: functional, cell-based; conditions: filed as negative allosteric modulator, dose 10-30 µM
Relaxin-3 receptor 1 = target: T1, Relaxin-3 receptor 1 (Homo sapiens, UniProt Q9NSD7); test: Antagonist activity at human RXFP3 expressed in CHO-K1 cells assessed as inhibition of relaxin-3 stimulated ERK1/2 phosphorylation preincubated for 15 mins followed by relaxin-3 addition for 5 mins; type: functional, cell-based
T1 sequence (Q9NSD7 whole entry): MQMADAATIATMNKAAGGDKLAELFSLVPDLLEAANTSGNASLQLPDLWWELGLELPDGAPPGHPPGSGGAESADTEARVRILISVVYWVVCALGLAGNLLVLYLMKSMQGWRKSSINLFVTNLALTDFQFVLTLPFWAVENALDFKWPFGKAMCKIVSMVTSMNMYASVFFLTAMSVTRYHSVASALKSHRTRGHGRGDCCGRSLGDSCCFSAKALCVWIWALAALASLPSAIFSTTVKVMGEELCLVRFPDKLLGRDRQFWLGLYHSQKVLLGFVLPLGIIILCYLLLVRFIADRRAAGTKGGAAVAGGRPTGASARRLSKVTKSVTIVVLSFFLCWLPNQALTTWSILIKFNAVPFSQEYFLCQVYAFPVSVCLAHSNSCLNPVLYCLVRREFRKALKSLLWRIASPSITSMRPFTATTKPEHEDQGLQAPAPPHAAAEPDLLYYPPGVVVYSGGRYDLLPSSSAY

Rattus norvegicus = test: In vivo antagonist activity at RXFP3 in Wistar rat assessed as decrease in R3/I5 induced food intake at 10 mg/kg, ip administered 1 hr prior to R3/I5 treatment and measured after 2 hrs; type: functional, organism-based; conditions: time 3.0 hrs
[7] = Efflux ratio of apparent permeability across basolateral to apical side over apical to basolateral side in MDCK-MDR1 cells measured upto 90 min by LC-MS/MS analysis; type: ADME, cell-based, Canis lupus familiaris; conditions: dog, mdck-mdr1, 1.5 h
[8] = Kinetic aqueous solubility of the compound in PBS at pH 7.4 measured after 2 hrs by LC/MS-MS method; type: physicochemical; conditions: buffer, pH 7.4, 2 h
[9] = Plasma protein binding in Wister rat at 1 uM measured after 6 hrs by LC-MS/MS analysis; type: ADME, cell-free
[10] = target: 5-hydroxytryptamine receptor 2C (Homo sapiens) (UniProt P28335); test: Inhibition of 5HT2C receptor (unknown origin) at 10 uM relative to control
[11] = target: Sigma intracellular receptor 2 (Homo sapiens, UniProt Q5BJF2); test: Inhibition of sigma-2 receptor (unknown origin)
[12] = target: Alpha-1A adrenergic receptor (Homo sapiens) (UniProt P35348); test: Inhibition of adrenergic alpha-1A receptor (unknown origin) at 10 uM relative to control
[13] = target: Alpha-1B adrenergic receptor (Homo sapiens) (UniProt P35368); test: Inhibition of adrenergic alpha-1B receptor (unknown origin) at 10 uM relative to control
[14] = target: Alpha-1D adrenergic receptor (Homo sapiens) (UniProt P25100); test: Inhibition of adrenergic alpha-1D receptor (unknown origin) at 10 uM relative to control
[15] = target: Alpha-2B adrenergic receptor (Homo sapiens) (UniProt P18089); test: Inhibition of adrenergic alpha-2B receptor (unknown origin) at 10 uM relative to control
[16] = target: Alpha-2C adrenergic receptor (Homo sapiens) (UniProt P18825); test: Inhibition of adrenergic alpha-2C receptor (unknown origin) at 10 uM relative to control
[17] = target: Beta-3 adrenergic receptor (Homo sapiens) (UniProt P13945); test: Inhibition of adrenergic beta-3 receptor (unknown origin) at 10 uM relative to control
[18] = target: D(3) dopamine receptor (Homo sapiens) (UniProt P35462); test: Inhibition of dopamine D3 receptor (unknown origin) at 10 uM relative to control
[19] = target: D(1B) dopamine receptor (Homo sapiens) (UniProt P21918); test: Inhibition of dopamine D5 receptor (unknown origin) at 10 uM relative to control
[20] = target: 5-hydroxytryptamine receptor 1B (Homo sapiens) (UniProt P28222); test: Inhibition of serotonin 5-HT1B receptor (unknown origin) at 10 uM relative to control
[21] = target: 5-hydroxytryptamine receptor 1D (Homo sapiens) (UniProt P28221); test: Inhibition of serotonin 5-HT1D receptor (unknown origin) at 10 uM relative to control
[22] = target: 5-hydroxytryptamine receptor 2A (Homo sapiens) (UniProt P28223); test: Inhibition of serotonin 5-HT2A receptor (unknown origin) at 10 uM relative to control
[23] = target: 5-hydroxytryptamine receptor 3A (Homo sapiens) (UniProt P46098); test: Inhibition of serotonin 5-HT3 receptor (unknown origin) at 10 uM relative to control
[24] = target: 5-hydroxytryptamine receptor 5A (Homo sapiens) (UniProt P47898); test: Inhibition of serotonin 5-HT5A receptor (unknown origin) at 10 uM relative to control
[25] = target: 5-hydroxytryptamine receptor 7 (Homo sapiens) (UniProt P34969); test: Inhibition of serotonin 5-HT7A receptor (unknown origin) at 10 uM relative to control
[26] = target: Sodium-dependent noradrenaline transporter (Homo sapiens) (UniProt P23975); test: Inhibition of NET receptor (unknown origin) at 10 uM relative to control
Homo sapiens = species: Homo sapiens; test: Inhibition of GABAA receptor (unknown origin) at 10 uM relative to control
[27] = target: Histamine H1 receptor (Homo sapiens) (UniProt P35367); test: Inhibition of histamine H1 receptor (unknown origin) at 10 uM relative to control
[28] = target: Histamine H2 receptor (Homo sapiens) (UniProt P25021); test: Inhibition of histamine H2 receptor (unknown origin) at 10 uM relative to control
[29] = target: Muscarinic acetylcholine receptor M1 (Homo sapiens) (UniProt P11229); test: Inhibition of muscarinic M1 receptor (unknown origin) at 10 uM relative to control
[30] = target: Mu-type opioid receptor (Homo sapiens) (UniProt P35372); test: Inhibition of opioid u receptor (unknown origin) at 10 uM relative to control
[31] = target: Delta-type opioid receptor (Homo sapiens) (UniProt P41143); test: Inhibition of opioid delta receptor (unknown origin) at 10 uM relative to control
Sequence of Delta-type opioid receptor (Homo sapiens) (P41143 whole entry): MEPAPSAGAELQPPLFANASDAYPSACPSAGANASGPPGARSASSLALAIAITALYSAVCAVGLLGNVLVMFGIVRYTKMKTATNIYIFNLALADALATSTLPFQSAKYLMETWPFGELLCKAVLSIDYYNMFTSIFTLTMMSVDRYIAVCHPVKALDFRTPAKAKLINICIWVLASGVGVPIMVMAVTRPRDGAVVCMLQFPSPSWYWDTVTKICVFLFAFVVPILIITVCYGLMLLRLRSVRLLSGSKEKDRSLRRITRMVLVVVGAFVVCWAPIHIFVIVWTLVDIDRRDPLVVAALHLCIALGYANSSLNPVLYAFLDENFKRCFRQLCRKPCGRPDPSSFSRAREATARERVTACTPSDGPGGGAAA

Sequence of Histamine H1 receptor (Homo sapiens) (P35367 whole entry): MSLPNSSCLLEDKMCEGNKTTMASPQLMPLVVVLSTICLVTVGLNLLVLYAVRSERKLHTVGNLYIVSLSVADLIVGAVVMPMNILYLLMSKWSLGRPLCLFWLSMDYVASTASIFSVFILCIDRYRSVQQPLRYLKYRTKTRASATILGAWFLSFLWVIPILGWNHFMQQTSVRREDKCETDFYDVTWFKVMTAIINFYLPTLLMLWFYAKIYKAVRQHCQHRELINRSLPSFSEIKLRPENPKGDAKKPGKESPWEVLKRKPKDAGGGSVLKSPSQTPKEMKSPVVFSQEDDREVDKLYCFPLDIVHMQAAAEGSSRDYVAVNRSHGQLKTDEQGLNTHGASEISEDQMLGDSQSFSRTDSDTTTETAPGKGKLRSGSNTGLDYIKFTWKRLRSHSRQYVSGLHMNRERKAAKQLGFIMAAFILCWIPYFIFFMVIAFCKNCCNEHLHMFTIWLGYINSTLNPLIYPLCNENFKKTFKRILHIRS
Sequence of Alpha-2B adrenergic receptor (Homo sapiens) (P18089 whole entry): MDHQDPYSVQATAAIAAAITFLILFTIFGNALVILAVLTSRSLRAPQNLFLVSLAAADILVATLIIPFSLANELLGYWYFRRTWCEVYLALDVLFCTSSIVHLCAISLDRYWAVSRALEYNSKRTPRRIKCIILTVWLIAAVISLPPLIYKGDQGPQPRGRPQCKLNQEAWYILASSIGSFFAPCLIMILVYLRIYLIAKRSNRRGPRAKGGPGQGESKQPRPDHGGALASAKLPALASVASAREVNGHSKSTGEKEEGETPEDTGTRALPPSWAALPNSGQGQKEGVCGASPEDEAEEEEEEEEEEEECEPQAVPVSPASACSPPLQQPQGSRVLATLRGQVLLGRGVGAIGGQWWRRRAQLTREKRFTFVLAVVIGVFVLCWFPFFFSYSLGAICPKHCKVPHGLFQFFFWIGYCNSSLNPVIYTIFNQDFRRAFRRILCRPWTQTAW
Sequence of 5-hydroxytryptamine receptor 7 (Homo sapiens) (P34969 whole entry): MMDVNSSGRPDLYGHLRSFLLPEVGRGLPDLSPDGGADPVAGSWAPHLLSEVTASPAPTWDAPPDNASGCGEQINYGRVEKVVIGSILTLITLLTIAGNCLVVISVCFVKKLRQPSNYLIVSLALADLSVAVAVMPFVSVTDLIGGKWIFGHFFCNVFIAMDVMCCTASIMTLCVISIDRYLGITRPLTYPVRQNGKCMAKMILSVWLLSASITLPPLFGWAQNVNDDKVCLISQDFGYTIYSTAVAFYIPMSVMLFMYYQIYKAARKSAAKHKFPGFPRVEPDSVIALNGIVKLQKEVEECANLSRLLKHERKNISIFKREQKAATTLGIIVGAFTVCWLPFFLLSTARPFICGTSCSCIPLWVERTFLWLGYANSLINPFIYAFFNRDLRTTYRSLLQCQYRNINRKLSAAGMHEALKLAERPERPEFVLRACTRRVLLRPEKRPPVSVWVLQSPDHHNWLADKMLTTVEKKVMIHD
Sequence of D(1B) dopamine receptor (Homo sapiens) (P21918 whole entry): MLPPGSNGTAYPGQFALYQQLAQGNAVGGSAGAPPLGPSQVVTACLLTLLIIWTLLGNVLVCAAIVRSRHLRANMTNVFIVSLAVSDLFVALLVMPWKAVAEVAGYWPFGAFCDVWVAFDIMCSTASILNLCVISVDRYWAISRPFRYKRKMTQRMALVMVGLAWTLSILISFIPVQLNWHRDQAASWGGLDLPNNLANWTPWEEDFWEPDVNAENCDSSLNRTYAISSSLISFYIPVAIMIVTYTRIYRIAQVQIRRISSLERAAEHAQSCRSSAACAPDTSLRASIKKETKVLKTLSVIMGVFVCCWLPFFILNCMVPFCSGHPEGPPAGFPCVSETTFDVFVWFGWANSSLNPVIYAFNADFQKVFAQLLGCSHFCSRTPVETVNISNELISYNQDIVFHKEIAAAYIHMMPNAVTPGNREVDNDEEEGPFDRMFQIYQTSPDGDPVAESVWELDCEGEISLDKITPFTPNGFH
Sequence of Mu-type opioid receptor (Homo sapiens) (P35372 whole entry): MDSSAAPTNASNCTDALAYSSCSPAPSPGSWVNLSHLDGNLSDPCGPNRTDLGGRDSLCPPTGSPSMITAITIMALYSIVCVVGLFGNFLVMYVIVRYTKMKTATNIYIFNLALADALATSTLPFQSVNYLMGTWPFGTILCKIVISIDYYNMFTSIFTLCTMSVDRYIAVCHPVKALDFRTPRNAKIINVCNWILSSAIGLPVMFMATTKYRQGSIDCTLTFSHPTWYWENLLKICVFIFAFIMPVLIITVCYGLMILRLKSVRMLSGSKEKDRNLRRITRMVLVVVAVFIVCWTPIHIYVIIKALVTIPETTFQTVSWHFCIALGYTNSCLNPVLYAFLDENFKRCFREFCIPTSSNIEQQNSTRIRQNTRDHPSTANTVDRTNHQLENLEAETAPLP
Sequence of Alpha-1A adrenergic receptor (Homo sapiens) (P35348 whole entry): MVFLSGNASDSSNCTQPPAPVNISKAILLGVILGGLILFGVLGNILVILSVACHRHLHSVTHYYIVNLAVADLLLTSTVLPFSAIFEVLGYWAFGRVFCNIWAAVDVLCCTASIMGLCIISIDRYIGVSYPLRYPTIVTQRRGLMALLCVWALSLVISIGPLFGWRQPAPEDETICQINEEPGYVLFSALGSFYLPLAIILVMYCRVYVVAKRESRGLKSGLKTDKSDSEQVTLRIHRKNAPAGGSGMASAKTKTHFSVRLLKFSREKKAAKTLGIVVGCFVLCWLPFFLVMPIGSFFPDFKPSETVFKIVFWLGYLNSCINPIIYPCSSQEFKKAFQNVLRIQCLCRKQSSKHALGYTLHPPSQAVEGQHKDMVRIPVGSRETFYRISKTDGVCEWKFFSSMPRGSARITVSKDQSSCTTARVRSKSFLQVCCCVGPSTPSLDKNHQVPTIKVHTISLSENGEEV
Sequence of 5-hydroxytryptamine receptor 2A (Homo sapiens) (P28223 whole entry): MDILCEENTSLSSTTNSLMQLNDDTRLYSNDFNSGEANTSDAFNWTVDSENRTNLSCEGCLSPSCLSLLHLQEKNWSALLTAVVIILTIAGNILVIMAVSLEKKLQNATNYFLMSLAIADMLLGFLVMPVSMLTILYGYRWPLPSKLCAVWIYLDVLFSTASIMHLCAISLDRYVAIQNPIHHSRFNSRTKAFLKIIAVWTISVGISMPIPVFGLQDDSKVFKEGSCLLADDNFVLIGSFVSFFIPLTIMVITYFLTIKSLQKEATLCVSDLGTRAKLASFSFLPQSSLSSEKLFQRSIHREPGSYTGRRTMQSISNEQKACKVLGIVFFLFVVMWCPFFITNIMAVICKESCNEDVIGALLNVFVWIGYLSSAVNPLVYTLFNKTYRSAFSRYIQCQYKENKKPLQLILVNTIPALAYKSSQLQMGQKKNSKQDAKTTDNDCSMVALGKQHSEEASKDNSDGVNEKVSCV
Sequence of 5-hydroxytryptamine receptor 2C (Homo sapiens) (P28335 whole entry): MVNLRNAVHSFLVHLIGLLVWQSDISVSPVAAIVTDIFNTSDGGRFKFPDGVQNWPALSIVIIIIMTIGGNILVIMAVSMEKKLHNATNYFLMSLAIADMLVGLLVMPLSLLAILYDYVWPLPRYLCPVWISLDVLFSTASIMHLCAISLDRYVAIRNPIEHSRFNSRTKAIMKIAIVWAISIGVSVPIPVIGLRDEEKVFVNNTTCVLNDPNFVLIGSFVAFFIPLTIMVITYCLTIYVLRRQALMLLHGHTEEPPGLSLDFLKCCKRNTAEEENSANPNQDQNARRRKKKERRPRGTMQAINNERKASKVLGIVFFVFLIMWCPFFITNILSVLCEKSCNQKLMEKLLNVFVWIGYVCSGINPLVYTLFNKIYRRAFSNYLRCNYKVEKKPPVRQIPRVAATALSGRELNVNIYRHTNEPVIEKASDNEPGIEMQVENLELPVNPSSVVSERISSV
Sequence of Alpha-2C adrenergic receptor (Homo sapiens) (P18825 whole entry): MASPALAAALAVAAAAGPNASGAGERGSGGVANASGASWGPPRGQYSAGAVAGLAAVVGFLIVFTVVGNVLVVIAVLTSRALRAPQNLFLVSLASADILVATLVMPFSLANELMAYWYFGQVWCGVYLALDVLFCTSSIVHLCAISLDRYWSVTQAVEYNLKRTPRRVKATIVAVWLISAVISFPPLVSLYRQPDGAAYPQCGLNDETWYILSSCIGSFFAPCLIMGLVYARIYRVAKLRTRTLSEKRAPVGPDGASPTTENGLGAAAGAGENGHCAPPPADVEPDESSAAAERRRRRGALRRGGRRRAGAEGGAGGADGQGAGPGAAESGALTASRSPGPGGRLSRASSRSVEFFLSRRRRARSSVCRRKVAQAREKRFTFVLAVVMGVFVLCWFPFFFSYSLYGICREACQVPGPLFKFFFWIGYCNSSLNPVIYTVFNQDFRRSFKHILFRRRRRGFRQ
Sequence of Beta-3 adrenergic receptor (Homo sapiens) (P13945 whole entry, looked up): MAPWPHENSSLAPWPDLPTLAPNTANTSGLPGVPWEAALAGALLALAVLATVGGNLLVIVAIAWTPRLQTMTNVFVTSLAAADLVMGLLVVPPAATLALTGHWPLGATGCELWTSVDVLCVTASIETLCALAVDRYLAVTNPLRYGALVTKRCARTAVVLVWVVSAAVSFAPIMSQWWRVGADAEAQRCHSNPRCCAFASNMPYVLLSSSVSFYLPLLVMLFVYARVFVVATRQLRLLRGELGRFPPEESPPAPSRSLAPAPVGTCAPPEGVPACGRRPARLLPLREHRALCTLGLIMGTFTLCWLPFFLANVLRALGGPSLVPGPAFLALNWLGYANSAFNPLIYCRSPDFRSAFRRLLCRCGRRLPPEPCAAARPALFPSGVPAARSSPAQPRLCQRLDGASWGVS

Structure (SMILES): O=C(Nc1ccc(-c2nc(-c3ccc(Cl)cc3)no2)cc1)C1CC(=O)N(Cc2ccco2)C1 (centres undefined)
- Cmax [1]: 1550 ng/mL
- Tmax [2]: 0.5 h
- CL free [3]: 43.8 mL/min/kg
- t1/2 [4]: 4.9 h
- AUC [5]: 5352 ng·h/mL
- Activity [6]: Active
- IC50 (Relaxin-3 receptor 1): 13.9 µM
- Activity (Rattus norvegicus): Active
- Ratio [7]: 1
- Kinetic_solubility [8]: < 1 µM
- PPB [9]: 99.8%
- inhibition [10]: 53%
- Ki [11]: 3.2 µM
- inhibition [12]: < 50%
- inhibition [13]: < 50%
- inhibition [14]: < 50%
- inhibition [15]: < 50%
- inhibition [16]: < 50%
- inhibition [17]: < 50%
- inhibition [18]: < 50%
- inhibition [19]: < 50%
- inhibition [20]: < 50%
- inhibition [21]: < 50%
- inhibition [22]: < 50%
- inhibition [23]: < 50%
- inhibition [24]: < 50%
- inhibition [25]: < 50%
- inhibition [26]: < 50%
- inhibition (Homo sapiens): < 50%
- inhibition [27]: < 50%
- inhibition [28]: < 50%
- inhibition [29]: < 50%
- inhibition [30]: < 50%
- inhibition [31]: < 50%
